Assay results reported in patent EP0113998A2, “Composition and treatment for herpes simplex viral infections” (priority 1982, dated 1984).
Marks after values point to notes of the source that are not given here.

System: herpes simplex infections
Format: in vivo, Human
Conditions: for Side Effects: human, in vivo; for Number Days To > 90% Improvement: topical, 1% in aqueous 30% ethanol and 5% neopurcellin, genital and oral herpes patients, placebo 6.250
Procedure: A clinical study was performed in a. classical double blind format with numbered vials containing either 1% sodium deoxycholic acid (DOC)in an aqueous solution of 30% ethanol and 5% neopurcellin (a mixture of inert medium chain fatty acids). The placebo was exactly the same, except that it lacked the sodium deoxycholic acid.

Row | SMILES | Side Effects | Number Days To > 90% Improvement [days] | Efficacy by site of infection (genital / oral herpes) (description in words, patients of Example 2) | reduction of significant signs of herpes simplex infections including erythema, edema, vesiculation, ulceration and pain (summary of findings of Example 2)
1 | C[C@H](CCC(=O)O)[C@H]1CC[C@H]2[C@@H]3CC[C@@H]4C[C@H](O)CC[C@]4(C)[C@H]3C[C@H](O)[C@]12C [DOC, sodium deoxycholic acid] | 1* | 1.608 | – | –
2 | CC[N+](C)(CC)CCO[C@H]1CC[C@@]2(C)C(=CC[C@H]3[C@@H]4CC[C@H]([C@@H](C)O)[C@@]4(C)CC[C@@H]32)C1 [TX047, 3-beta-[2-(Diethylamino)ethoxy]-20-beta-hydroxypregn-5-ene methyl p-toluenesulphonate] | 2* | 1.774 | approx. 60% genital, 40% oral herpes. Efficacy was greatest in the treatment of oral infec-tions and less but clearly active, and use-ful for genital herpes. | markedly reduce the significant signs of herpes simplex infections
